In the CheMixHub viscosity set:
“And” between values parts separate entries of the source, which are not always exact repeats. Equal entries are not always repeated.

Experiments:
[1] = 101 kPa
[2] = xn = mol fraction of the nth substance listed

[2H]O[2H]
[1]
Settings	viscosity
293.15 K	1.253 mPa·s
297.15 K	1.128 mPa·s
299.15 K	1.072 mPa·s
300.15 K	0.994 mPa·s and 1.05 mPa·s
301.15 K	1.026 mPa·s
302.15 K	1 mPa·s
303.1 K	0.973 mPa·s
303.15 K	0.981 mPa·s
304.15 K	0.964 mPa·s
305.15 K	0.884 mPa·s and 0.942 mPa·s
306.15 K	0.924 mPa·s
307.15 K	0.901 mPa·s
308.15 K	0.879 mPa·s
309.15 K	0.861 mPa·s
310.15 K	0.842 mPa·s
311.15 K	0.826 mPa·s
312.15 K	0.809 mPa·s
313.1 K	0.785 mPa·s
313.15 K	0.791 mPa·s
323.1 K	0.649 mPa·s

CCCCCCCCCCCCCCCCCC[P+](CCCC)(CCCC)CCCC.N#Cc1ccc[n-]1 + OCCN(CCO)CCO
viscosity [mPa·s], [2], 100 kPa
Settings	293.15 K	298.15 K	303.15 K	313.15 K
x1 = 0.014	971	643	420	192
x1 = 0.029	1032	613	390	189
x1 = 0.046	1123	683	439	217
x1 = 0.085	1228	775	506	248
x1 = 0.104	1251	794	526	258
x1 = 0.214	1185	795	538	267
x1 = 0.286	1096	746	509	257
x1 = 0.387	1019	704	483	248
x1 = 0.475	928	646	448	233
x1 = 0.548	856	600	422	225
x1 = 0.73	847	614	459	242
x1 = 0.834	925	653	459	244

CCCC[P+](CC)(CC)CC.N#Cc1ccc[n-]1 + OCCN(CCO)CCO
[2], 293.15 K, 100 kPa
Settings	viscosity [mPa·s]
x1 = 0.018	956
x1 = 0.089	975
x1 = 0.104	937
x1 = 0.223	809
x1 = 0.413	679

CCCCOC(=O)c1ccccc1C(=O)OCCCC + Oc1cccc(O)c1
Settings	viscosity [mPa·s]
[2], 293.15 K, 101 kPa, x2 = 0.35	69.1

[2H]O[2H] + [Br-].[K+]
viscosity [mPa·s], [2], 101 kPa
Settings	x2 = 0.012	x2 = 0.0375	x2 = 0.056	x2 = 0.067	x2 = 0.073	x2 = 0.081
298.15 K	1.086	1.046	1.024	1.018	1.03	1.047
308.15 K	0.854	0.856	0.853	0.85	0.868	0.884
318.15 K	0.715	0.725	0.732	0.739	0.754	0.767

[2H]O[2H] + [Cl-].[K+]
viscosity [mPa·s], [2], 101 kPa
Settings	x2 = 0.005	x2 = 0.01	x2 = 0.022	x2 = 0.04	x2 = 0.064
298.15 K	1.095	1.08	1.076	1.089	1.101
308.15 K	0.868	0.859	0.871	0.889	0.912
318.15 K	0.714	0.709	0.732	0.755	0.784

[2H]O[2H] + [Cl-].[Li+]
viscosity [mPa·s], [2], 101 kPa
Settings	x2 = 0.024	x2 = 0.076	x2 = 0.141	x2 = 0.197	x2 = 0.215
298.15 K	–	1.712	3.692	–	8.914
308.15 K	1.039	1.351	3.018	–	6.744
318.15 K	0.854	1.112	2.397	4.216	5.422

C=CC#N + c1ccccc1
[2], 307.4 K, 101.33 kPa
Settings	viscosity [mPa·s]
x2 = 0.0966	0.494
x2 = 0.2512	0.448
x2 = 0.4788	0.395
x2 = 0.5188	0.386
x2 = 0.6633	0.357
x2 = 0.8844	0.32

CC1CCC(O)CC1 (stereo unspecified) + c1ccccc1
[2], 293.15 K, 101 kPa
Settings	viscosity [mPa·s]
x2 = 0.33	5.3
x2 = 0.5	2.4
x2 = 0.6	1.8
x2 = 0.667	1.6
x2 = 0.75	1.4
x2 = 0.8	1.3
